Data: PubChem BioAssay (NCI)
Where “and” joins values, the source holds several entries; their conditions need not be identical. Identical values can stand only once.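 1) Cells in 96-well plates. 2) Compound, 48 h, 5 concentrations. 3) Linear interpolation between surrounding doses. 4) Unreached endpoint = highest concentration. GI50 marks 50% less growth. At the TGI there is no net growth.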

Key:
Assay in all cases: DTP human tumour cell line panel, 48 h
A549 NSCLC = system: A549 NSCLC
COLO 205 colon = system: COLO 205 colon
SN12C renal = system: SN12C renal
ACHN renal = system: ACHN renal
UACC-257 melanoma = system: UACC-257 melanoma
TK-10 renal = system: TK-10 renal
T-47D breast = system: T-47D breast
SK-OV-3 ovarian = system: SK-OV-3 ovarian
NCI-H23 lung = system: NCI-H23 lung
HOP-92 NSCLC = system: HOP-92 NSCLC
KM12 colon = system: KM12 colon
M14 melanoma = system: M14 melanoma
SW-620 colon = system: SW-620 colon
RXF 393 renal = system: RXF 393 renal
CAKI-1 renal = system: CAKI-1 renal
CCRF-CEM leukemia = system: CCRF-CEM leukemia
HCT-116 colon = system: HCT-116 colon
HOP-62 NSCLC = system: HOP-62 NSCLC
UACC-62 melanoma = system: UACC-62 melanoma
U251 CNS = system: U251 CNS
PC-3 prostate = system: PC-3 prostate
SNB-75 CNS = system: SNB-75 CNS
NCI-H226 lung = system: NCI-H226 lung
SF-539 CNS = system: SF-539 CNS
NCI/ADR-RES ovarian = system: NCI/ADR-RES ovarian
OVCAR-8 ovarian = system: OVCAR-8 ovarian
MALME-3M melanoma = system: MALME-3M melanoma
K-562 leukemia = system: K-562 leukemia
SR leukemia = system: SR leukemia
NCI-H460 lung = system: NCI-H460 lung
HS 578T breast = system: HS 578T breast
OVCAR-5 ovarian = system: OVCAR-5 ovarian
MDA-MB-435 = system: MDA-MB-435
SF-295 CNS = system: SF-295 CNS
HL-60(TB) leukemia = system: HL-60(TB) leukemia
SF-268 CNS = system: SF-268 CNS
SK-MEL-2 melanoma = system: SK-MEL-2 melanoma
SK-MEL-5 melanoma = system: SK-MEL-5 melanoma
OVCAR-4 ovarian = system: OVCAR-4 ovarian
IGROV1 ovarian = system: IGROV1 ovarian
NCI-H522 lung = system: NCI-H522 lung
HCC-2998 colon = system: HCC-2998 colon
BT-549 breast = system: BT-549 breast
DU-145 prostate = system: DU-145 prostate
A498 renal = system: A498 renal
MDA-MB-231 breast = system: MDA-MB-231 breast
MCF7 breast = system: MCF7 breast
EKVX NSCLC = system: EKVX NSCLC
SK-MEL-28 melanoma = system: SK-MEL-28 melanoma
UO-31 renal = system: UO-31 renal
SNB-19 CNS = system: SNB-19 CNS
OVCAR-3 ovarian = system: OVCAR-3 ovarian
786-0 renal = system: 786-0 renal
LOX IMVI melanoma = system: LOX IMVI melanoma
HCT-15 colon = system: HCT-15 colon
MOLT-4 leukemia = system: MOLT-4 leukemia
RPMI-8226 leukemia = system: RPMI-8226 leukemia
HT29 colon = system: HT29 colon

For `O=C(NOCCO)c1cc(CN2OCCCC2=O)c(F)c(F)c1Nc1ccc(I)cc1F`, the GI50 (A549 NSCLC) was 464 nM and 156 nM, the TGI (A549 NSCLC) was over 86.2 µM and the GI50 (COLO 205 colon) was < 10 nM and 2.19 nM. The TGI (COLO 205 colon) was 14.9 µM and > 10 µM, the GI50 (SN12C renal) was 2150 nM and 2170 nM and the TGI (SN12C renal) was over 100 µM. The GI50 (ACHN renal) was 4.28 µM, the TGI (ACHN renal) was over 100 µM and the GI50 (UACC-257 melanoma) was < 10 nM and 2.04 nM. The TGI (UACC-257 melanoma) was 39.3 nM and < 12.8 nM, the TGI (TK-10 renal) was over 100 µM and the GI50 (T-47D breast) was 29.4 µM and > 10 µM. For the same compound, the TGI (T-47D breast) was over 100 µM, the GI50 (SK-OV-3 ovarian) was 22.6 µM and > 2.5 µM and the TGI (SK-OV-3 ovarian) was over 85.8 µM. The GI50 (NCI-H23 lung) was < 22.2 nM and 54.5 nM, the TGI (NCI-H23 lung) was 26.5 µM and > 10 µM and the GI50 (HOP-92 NSCLC) was 22.3 nM and 17.7 nM. For the same compound, the TGI (HOP-92 NSCLC) was 688 nM and 436 nM, the GI50 (KM12 colon) was 56.1 nM and 71.9 nM and the TGI (KM12 colon) was over 100 µM. The GI50 (M14 melanoma) was < 10 nM and 2.26 nM, the TGI (M14 melanoma) was 23.7 nM and the GI50 (SW-620 colon) was < 10 nM and 5.29 nM. The TGI (SW-620 colon) was over 100 µM, the GI50 (RXF 393 renal) was 521 nM and 336 nM and the TGI (RXF 393 renal) was 25.9 µM and > 10 µM. For the same compound, the GI50 (CAKI-1 renal) was 290 nM, the TGI (CAKI-1 renal) was over 40.5 µM and the GI50 (CCRF-CEM leukemia) was 39.5 µM and > 10 µM. For the same compound, the TGI (CCRF-CEM leukemia) was over 100 µM, the GI50 (HCT-116 colon) was 17.1 nM and 20.7 nM and the TGI (HCT-116 colon) was 28.6 µM and > 10 µM. It also gave a GI50 (HOP-62 NSCLC) of 19.5 nM, a TGI (HOP-62 NSCLC) of over 100 µM and a GI50 (UACC-62 melanoma) of under 10 nM. The GI50 (U251 CNS) was 362 nM and 479 nM, the TGI (U251 CNS) was 23.8 µM and > 10 µM and the GI50 (PC-3 prostate) was 31.7 µM and > 10 µM. The TGI (PC-3 prostate) was over 84.3 µM, the GI50 (SNB-75 CNS) was 16.4 µM and > 3.83 µM and the TGI (SNB-75 CNS) was over 100 µM. For the same compound, the GI50 (NCI-H226 lung) was 1.89 µM and 9.97 µM, the TGI (NCI-H226 lung) was over 100 µM and the GI50 (SF-539 CNS) was 8.61 µM and > 10 µM. For the same compound, the TGI (SF-539 CNS) was 66 µM and > 10 µM, the GI50 (NCI/ADR-RES ovarian) was 19.4 µM and > 10 µM and the TGI (NCI/ADR-RES ovarian) was over 100 µM. For the same compound, the GI50 (OVCAR-8 ovarian) was 12.6 µM and > 7.77 µM, the TGI (OVCAR-8 ovarian) was over 100 µM and the GI50 (MALME-3M melanoma) was < 10 nM and 1.85 nM. The TGI (MALME-3M melanoma) was under 10 nM, the GI50 (K-562 leukemia) was 1010 nM and 1420 nM and the TGI (K-562 leukemia) was over 100 µM. The GI50 (SR leukemia) was 19.9 µM and > 10 µM, the TGI (SR leukemia) was over 100 µM and the GI50 (NCI-H460 lung) was 12.9 µM and > 10 µM. The TGI (NCI-H460 lung) was over 100 µM, the GI50 (HS 578T breast) was 20.6 µM and > 10 µM and the TGI (HS 578T breast) was over 100 µM. The GI50 (OVCAR-5 ovarian) was < 10 nM and 4.85 nM, the TGI (OVCAR-5 ovarian) was over 100 µM and the GI50 (MDA-MB-435) was < 10 nM and 8.79 nM. For the same compound, the TGI (MDA-MB-435) was 77.1 µM and > 10 µM, the GI50 (SF-295 CNS) was 16.9 µM and > 10 µM and the TGI (SF-295 CNS) was over 75.4 µM. The GI50 (HL-60(TB) leukemia) was < 10 nM and 1.94 nM, the TGI (HL-60(TB) leukemia) was over 57 µM and the GI50 (SF-268 CNS) was 22.6 µM and > 10 µM. For the same compound, the TGI (SF-268 CNS) was over 100 µM, the GI50 (SK-MEL-2 melanoma) was < 10 nM and 3.24 nM and the GI50 (SK-MEL-5 melanoma) was 597 nM. The TGI (SK-MEL-5 melanoma) was 23.9 µM and > 10 µM, the GI50 (OVCAR-4 ovarian) was 6.13 µM and > 7.82 µM and the TGI (OVCAR-4 ovarian) was over 90.4 µM. The GI50 (IGROV1 ovarian) was 101 nM and 24.6 nM, the TGI (IGROV1 ovarian) was over 52.5 µM and the GI50 (NCI-H522 lung) was 18.3 µM and > 7.9 µM. For the same compound, the TGI (NCI-H522 lung) was over 65.4 µM, the GI50 (HCC-2998 colon) was < 11.1 nM and 1.72 nM and the GI50 (BT-549 breast) was 17.3 µM and > 10 µM. The TGI (BT-549 breast) was over 100 µM, the GI50 (DU-145 prostate) was 12 µM and > 8.73 µM and the TGI (DU-145 prostate) was over 100 µM. For the same compound, the GI50 (A498 renal) was < 10 nM and 9.48 nM, the TGI (A498 renal) was 35.5 nM and 115 nM and the GI50 (MDA-MB-231 breast) was 243 nM and 116 nM. The TGI (MDA-MB-231 breast) was 62.2 µM and > 10 µM, the GI50 (MCF7 breast) was 28.8 µM and > 10 µM and the TGI (MCF7 breast) was over 100 µM. For the same compound, the GI50 (EKVX NSCLC) was 59.9 nM and 80.6 nM, the TGI (EKVX NSCLC) was over 74.5 µM and the GI50 (SK-MEL-28 melanoma) was < 10 nM and 2.49 nM. The TGI (SK-MEL-28 melanoma) was 71.2 nM and 124 nM, the GI50 (UO-31 renal) was 170 nM and 164 nM and the TGI (UO-31 renal) was 13.1 µM and > 10 µM. The GI50 (SNB-19 CNS) was 3680 nM and 1640 nM, the TGI (SNB-19 CNS) was over 100 µM and the GI50 (OVCAR-3 ovarian) was 28.9 µM and > 10 µM. For the same compound, the TGI (OVCAR-3 ovarian) was 98.7 µM and > 10 µM, the GI50 (786-0 renal) was 15.7 µM and > 10 µM and the TGI (786-0 renal) was over 92.2 µM. The GI50 (LOX IMVI melanoma) was 112 nM and 164 nM, the TGI (LOX IMVI melanoma) was 12.2 µM and > 10 µM and the GI50 (HCT-15 colon) was 5.74 µM and > 6.24 µM. The TGI (HCT-15 colon) was over 100 µM, the GI50 (MOLT-4 leukemia) was 38.2 µM and > 10 µM and the TGI (MOLT-4 leukemia) was over 100 µM. The GI50 (RPMI-8226 leukemia) was 21.7 µM and > 5.14 µM, the TGI (RPMI-8226 leukemia) was over 84.4 µM and the GI50 (HT29 colon) was < 10 nM and 2.9 nM. It also gave a TGI (HT29 colon) of over 42.7 µM.
